Data on 15 compounds can be found in patent US8852554B2, “Radiolabelled PDE10 ligands” (Janssen Pharmaceutica NV, priority 2009, dated 2014).

Structures are written as SMILES. Where a name gives a salt, the structure may show the parent alone.

For series [1], the target named is T1, Rat recombinant PDE10A (rPDE10A) (Rattus norvegicus, UniProt Q9QYJ6).
T1 construct: made in house; host or cells: Sf9 insect cells (baculovirus)
T1 sequence (Q9QYJ6 1-794): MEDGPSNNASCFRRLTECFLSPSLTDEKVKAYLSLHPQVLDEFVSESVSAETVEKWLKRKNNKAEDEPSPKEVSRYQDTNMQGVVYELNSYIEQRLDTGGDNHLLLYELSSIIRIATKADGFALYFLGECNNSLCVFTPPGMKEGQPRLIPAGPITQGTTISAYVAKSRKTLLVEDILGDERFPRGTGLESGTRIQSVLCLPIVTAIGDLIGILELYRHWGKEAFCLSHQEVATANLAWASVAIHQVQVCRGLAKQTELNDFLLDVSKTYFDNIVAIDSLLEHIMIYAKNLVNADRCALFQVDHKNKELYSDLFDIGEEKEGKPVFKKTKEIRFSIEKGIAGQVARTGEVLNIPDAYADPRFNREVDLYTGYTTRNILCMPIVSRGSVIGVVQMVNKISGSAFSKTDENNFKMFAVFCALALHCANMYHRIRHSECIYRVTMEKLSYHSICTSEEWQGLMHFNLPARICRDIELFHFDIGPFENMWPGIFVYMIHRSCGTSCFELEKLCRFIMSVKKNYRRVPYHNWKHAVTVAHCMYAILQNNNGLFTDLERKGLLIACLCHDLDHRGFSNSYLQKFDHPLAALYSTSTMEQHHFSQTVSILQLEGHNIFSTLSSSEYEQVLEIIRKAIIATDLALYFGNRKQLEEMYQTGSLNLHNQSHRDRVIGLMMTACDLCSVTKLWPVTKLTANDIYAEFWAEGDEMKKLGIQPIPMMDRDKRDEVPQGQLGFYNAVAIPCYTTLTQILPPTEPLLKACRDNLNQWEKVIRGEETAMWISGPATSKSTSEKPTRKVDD
The series is described as follows: rat PDE10A2-cAMP inhibition, in vitro SPA assay. To be noted: 60 nM cAMP substrate. The series is classed as biochemical. On the procedure:
Rat recombinant PDE10A (rPDE10A) was expressed in Sf9 cells using a recombinant rPDE10A baculovirus construct. Cells were harvested after 48 h of infection and the rPDE10A protein was purified by metal chelate chromatography on Ni-sepharose 6FF. Tested compounds were dissolved and diluted in 100% DMSO to a concentration 100 fold of the final concentration in the assay. Compound dilutions (0.4 μl) were added in 384 well plates to 20 μl of incubation buffer (50 mM Tris pH 7.8, 8.3 mM MgCl2, 1.7 mM EGTA). 10 μl of rPDE10A enzyme in incubation buffer was added and the reaction was started by addition of 10 μl substrate to a final concentration of 60 nM cAMP and 0.008 μCi 3H-cAMP. The reaction was incubated for 60 minutes at room temperature. […] After sedimentation of the beads during 30 minutes, the radioactivity was measured in a Perkin Elmer Topcount scintillation counter and results were expressed as cpm. For blanc values the enzyme was omitted from the reaction and replaced by incubation buffer. Control values were obtained by addition of a final concentration of 1% DMSO instead of compound.

Another series deals with T2, PDE10A (Rattus norvegicus, UniProt Q9QYJ6).
T2 construct: from tissue; host or cells: brain (striatum) of living male Wistar rats, in vivo microPET
T2 sequence (Q9QYJ6 1-794): T1 sequence (Q9QYJ6 1-794)
The series is described as follows: MicroPET imaging studies. The series is classed as in vivo, male Wistar rats. Particulars: simplified reference tissue model, cerebellum as reference. On the procedure: Imaging experiments were performed on a Focus™ 220 microPET scanner (Concorde Microsystems, Knoxville, Tenn., USA) using male Wistar rats with body weight varying between 300 and 600 g. […] Dynamic scans of 120 min were acquired in list mode. After reconstruction of the images, they were semi-automatically co-registered with a [^11C]raclopride template of the rat brain, and volumes of interest (VOIs) were generated for different anatomical brain structures (striatum, cerebral cortex and cerebellum) from which time-activity curves (TAC) were constructed for each individual image, using PMOD software (PMOD Technologies Ltd.). Normalization for body weight of the animal and injected dose was done. The radioactivity concentration in the different brain regions was expressed as SUV (standardized uptake value) as a function of time in seconds post injection of the radiotracer. The parametric binding potential (BP) values were calculated for all acquired images by using a simplified reference tissue model where the TAC of the cerebellum was used as input TAC for non-specific binding, using the same software (PMOD).
The radioactivity concentration in the different brain regions was expressed as SUV value as a function of time p.i. of the radiotracer by normalization for body weight of the animal and injected dose.

The compound `N#Cc1cccc(COc2ccc(-c3nn(CCF)cc3-c3ccncc3)cc2)n1` [Compound B26, 6-[[4-[1-(2-fluoroethyl)-4-(4-pyridinyl)-1H-pyrazol-3-yl]phenoxy]methyl]-2-pyridinecarbonitrile] displayed a melting point of 148.7 °C. In series [1], the IC50 is 33.1 nM.
The matching figures for `FCCCn1cc(-c2ccncc2)c(-c2ccc(OCc3ccc(OCCF)cn3)cc2)n1` [Compound B15, 5-(2-fluoroethoxy)-2-[[4-[1-(3-fluoropropyl)-4-(4-pyridinyl)-1H-pyrazol-3-yl]phenoxy]methyl]-pyridine]: 206.8 °C and 251 nM.
In turn, `FCCn1cc(-c2ccncc2)c(-c2ccc(OCc3ccc(Br)cn3)cc2)n1` [Compound B20, 5-bromo-2-[[4-[1-(2-fluoroethyl)-4-(4-pyridinyl)-1H-pyrazol-3-yl]phenoxy]methyl]-pyridine] displayed a melting point of 125.8 °C. For the same compound, in series [1], the IC50 is 9.55 nM.
The matching figures for `COc1ccc(Br)c(COc2ccc(-c3nn(CCF)cc3-c3ccncc3)cc2)n1` [Compound B27, 3-bromo-2-[[4-[1-(2-fluoroethyl)-4-(4-pyridinyl)-1H-pyrazol-3-yl]phenoxy]methyl]-6-methoxy-pyridine]: 119.2 °C and 28.2 nM.
On to `COc1ccc(COc2ccc(-c3nn(CCF)cc3-c3ccncc3)cc2)nc1` [Compound B4, 2-[[4-[1-(2-fluoroethyl)-4-(4-pyridinyl)-1H-pyrazol-3-yl]phenoxy]methyl]-5-methoxy-pyridine], for which the melting point came out at 117.52 °C. For the same compound, in series [1], the concentration for half-maximal inhibition (IC50) was 3.31 nM.
The matching figures for `COc1cccnc1COc1ccc(-c2nn(CCCF)cc2-c2ccncc2)cc1` [Compound B12, 2-[[4-[1-(3-fluoropropyl)-4-(4-pyridinyl)-1H-pyrazol-3-yl]phenoxy]methyl]-3-methoxy-pyridine]: 165.9 °C and 13.2 nM.
Consider `FCCOc1cccnc1COc1ccc(-c2nn(CCF)cc2-c2ccncc2)cc1` (as salt: succinate) [Compound B17, 3-(2-fluoroethoxy)-2-[[4-[1-(2-fluoroethyl)-4-(4-pyridinyl)-1H-pyrazol-3-yl]phenoxy]methyl]pyridine.succinate], for which the melting point was determined as 114.18 °C.
Still for that read-out and setting: under `Cc1cccc(COc2ccc(-c3nn(CCCF)cc3-c3ccncc3)cc2)n1` (as salt: hydrochloride) [Compound B2, 2-[[4-[1-(3-fluoropropyl)-4-(4-pyridinyl)-1H-pyrazol-3-yl]phenoxy]methyl]-6-methyl-pyridine.hydrochloride] stands 106.51 °C; under `FCCOc1cccnc1COc1ccc(-c2nn(CC(F)(F)F)cc2-c2ccncc2)cc1` (as salt: succinate) [Compound B10, 3-(2-fluoroethoxy)-2-[[4-[4-(4-pyridinyl)-1-(2,2,2-trifluoroethyl)-1H-pyrazol-3-yl]phenoxy]methyl]-pyridine.succinate], 140.72 °C.
The compound `FCCn1cc(-c2ccncc2)c(-c2ccc(OCc3ccc(C(F)(F)F)cn3)cc2)n1` [Compound B22, 2-[[4-[1-(2-fluoroethyl)-4-(4-pyridinyl)-1H-pyrazol-3-yl]phenoxy]methyl]-5-(trifluoromethyl)-pyridine] yielded a melting point of 133.23 °C. Besides, the IC50 in series [1] was 91.2 nM.
Turning to `COc1cccnc1COc1ccc(-c2nn(CC(F)(F)F)cc2-c2ccncc2)cc1` [Compound B9, 3-methoxy-2-[[4-[4-(4-pyridinyl)-1-(2,2,2-trifluoroethyl)-1H-pyrazol-3-yl]phenoxy]methyl]-pyridine], the melting point stood at 147 °C. The IC50 in series [1] is 5.13 nM.
In turn, `Cc1cccc(COc2ccc(-c3nn(CCF)cc3-c3ccncc3)cc2)n1` (as salt: hydrochloride) [Compound B1, 2-[[4-[1-(2-fluoroethyl)-4-(4-pyridinyl)-1H-pyrazol-3-yl]phenoxy]methyl]-6-methyl-pyridine.dihydrochloride] came in with a melting point of 227.22 °C.
As for `Cc1cnc(COc2ccc(-c3nn(CC[18F])cc3-c3ccncc3)cc2)c(C)c1` [[^18F]B-3], at PDE10A, the “BP (binding potential) at baseline” value is 4.1.
As to `COc1ccc(COc2ccc(-c3nn(CC(F)(F)F)cc3-c3ccncc3)cc2)nc1` [Compound B5, 5-methoxy-2-[[4-[4-(4-pyridinyl)-1-(2,2,2-trifluoroethyl)-1H-pyrazol-3-yl]phenoxy]methyl]-pyridine], the melting point turned out to be 136.3 °C. Moreover, in series [1], the IC50 is 5.13 nM.
For the compound `FCCOc1ccc(COc2ccc(-c3nn(CCF)cc3-c3ccncc3)cc2)nc1` [Compound B19, 5-(2-fluoroethoxy)-2-[[4-[1-(2-fluoroethyl)-4-(4-pyridinyl)-1H-pyrazol-3-yl]phenoxy]methyl]-pyridine], the melting point was 212.7 °C. For the same compound, the IC50 in series [1] is 100 nM.

For orientation: melting point means the temperature, or range, at which the solid turns liquid. Usually IC50 stands for the concentration that inhibits the measured activity by half.
